# Measurements from ChEMBL document CHEMBL1146173, “New pyrimido[5,4-b]indoles and [1]benzothieno[3,2-d]pyrimidines: high affinity ligands for the alpha(1)-adrenoceptor subtypes” (Bioorg Med Chem Lett, 2006).
# Assays:
# [1] = molecular target: T1, Alpha-1A adrenergic receptor (Homo sapiens, UniProt P35348); assay: Displacement of [125I]BE2254 from human cloned adrenergic alpha 1A receptor expressed in HEK293 cells; type: cell-based
# T1 sequence (P35348 whole entry): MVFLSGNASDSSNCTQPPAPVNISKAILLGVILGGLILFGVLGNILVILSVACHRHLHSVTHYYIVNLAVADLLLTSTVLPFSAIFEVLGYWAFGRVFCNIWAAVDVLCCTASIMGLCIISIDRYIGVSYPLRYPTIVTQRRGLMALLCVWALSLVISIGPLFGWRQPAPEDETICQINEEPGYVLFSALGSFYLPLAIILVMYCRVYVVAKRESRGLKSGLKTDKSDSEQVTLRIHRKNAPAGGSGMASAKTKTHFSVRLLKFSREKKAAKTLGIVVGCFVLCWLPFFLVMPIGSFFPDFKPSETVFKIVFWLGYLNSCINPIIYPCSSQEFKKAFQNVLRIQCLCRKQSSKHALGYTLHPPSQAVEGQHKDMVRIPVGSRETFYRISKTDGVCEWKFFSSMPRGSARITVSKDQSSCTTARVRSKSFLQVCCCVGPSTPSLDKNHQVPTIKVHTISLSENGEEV
# [2] = molecular target: T2, Alpha-1A adrenergic receptor (Rattus norvegicus) (UniProt P43140); assay: Antagonist activity at adrenergic alpha 1A receptor in rat prostatic vas deferens; type: functional, tissue-based
# T2 sequence (whole entry): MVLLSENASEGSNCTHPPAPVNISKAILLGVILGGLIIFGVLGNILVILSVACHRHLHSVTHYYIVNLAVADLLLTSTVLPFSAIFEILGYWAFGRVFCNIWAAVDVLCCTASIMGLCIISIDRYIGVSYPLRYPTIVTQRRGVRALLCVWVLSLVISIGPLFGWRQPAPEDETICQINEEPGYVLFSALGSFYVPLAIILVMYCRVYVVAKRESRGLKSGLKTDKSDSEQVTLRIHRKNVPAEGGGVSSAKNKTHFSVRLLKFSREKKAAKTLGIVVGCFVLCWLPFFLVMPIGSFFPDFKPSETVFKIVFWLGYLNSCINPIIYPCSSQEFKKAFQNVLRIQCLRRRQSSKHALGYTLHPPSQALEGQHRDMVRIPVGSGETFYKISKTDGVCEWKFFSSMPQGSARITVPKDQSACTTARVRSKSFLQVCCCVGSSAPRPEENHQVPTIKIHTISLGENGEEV
# [3] = molecular target: T3, Alpha-1D adrenergic receptor (Homo sapiens, UniProt P25100); assay: Displacement of [125I]BE2254 from human cloned adrenergic alpha 1D receptor expressed in HEK293 cells; type: cell-based; conditions: for Log Ki: hek293
# T3 sequence (P25100 whole entry): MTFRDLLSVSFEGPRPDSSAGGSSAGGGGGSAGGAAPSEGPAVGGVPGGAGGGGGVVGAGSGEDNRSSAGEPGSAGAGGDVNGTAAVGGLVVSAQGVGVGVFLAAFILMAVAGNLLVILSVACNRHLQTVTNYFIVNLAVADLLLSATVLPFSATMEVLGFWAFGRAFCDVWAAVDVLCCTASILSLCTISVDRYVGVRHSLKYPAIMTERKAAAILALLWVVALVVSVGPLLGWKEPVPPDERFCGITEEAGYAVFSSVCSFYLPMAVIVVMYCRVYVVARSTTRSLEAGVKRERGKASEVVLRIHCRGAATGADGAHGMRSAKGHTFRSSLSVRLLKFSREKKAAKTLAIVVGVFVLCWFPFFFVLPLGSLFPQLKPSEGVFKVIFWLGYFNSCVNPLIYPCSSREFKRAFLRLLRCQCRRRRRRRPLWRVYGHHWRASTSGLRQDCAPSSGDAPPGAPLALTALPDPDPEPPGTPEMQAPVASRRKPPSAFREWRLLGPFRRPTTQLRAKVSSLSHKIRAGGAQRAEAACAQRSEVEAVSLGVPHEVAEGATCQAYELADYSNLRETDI
# [4] = molecular target: T4, Alpha-1B adrenergic receptor (Rattus norvegicus) (UniProt P15823); assay: Antagonist activity at adrenergic alpha 1B receptor in rat spleen; type: functional, tissue-based
# T4 sequence (whole entry): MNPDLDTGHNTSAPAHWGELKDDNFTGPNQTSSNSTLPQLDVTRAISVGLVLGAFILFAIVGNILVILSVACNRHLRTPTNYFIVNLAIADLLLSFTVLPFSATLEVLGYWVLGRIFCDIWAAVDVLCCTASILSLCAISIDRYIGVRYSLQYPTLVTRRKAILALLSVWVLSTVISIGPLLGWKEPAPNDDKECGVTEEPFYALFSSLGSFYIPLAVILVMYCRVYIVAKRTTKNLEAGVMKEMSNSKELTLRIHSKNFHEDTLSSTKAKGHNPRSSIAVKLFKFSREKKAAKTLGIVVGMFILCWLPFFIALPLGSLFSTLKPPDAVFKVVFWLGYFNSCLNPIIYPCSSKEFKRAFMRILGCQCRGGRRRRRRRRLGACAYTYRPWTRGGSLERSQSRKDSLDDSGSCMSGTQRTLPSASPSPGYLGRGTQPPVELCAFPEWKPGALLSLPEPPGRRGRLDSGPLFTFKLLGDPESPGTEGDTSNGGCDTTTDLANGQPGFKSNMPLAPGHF
# [5] = molecular target: T5, Alpha-1D adrenergic receptor (Rattus norvegicus) (UniProt P23944); assay: Antagonist activity at adrenergic alpha 1D receptor in rat thoracic aorta; type: functional, tissue-based
# T5 sequence (whole entry): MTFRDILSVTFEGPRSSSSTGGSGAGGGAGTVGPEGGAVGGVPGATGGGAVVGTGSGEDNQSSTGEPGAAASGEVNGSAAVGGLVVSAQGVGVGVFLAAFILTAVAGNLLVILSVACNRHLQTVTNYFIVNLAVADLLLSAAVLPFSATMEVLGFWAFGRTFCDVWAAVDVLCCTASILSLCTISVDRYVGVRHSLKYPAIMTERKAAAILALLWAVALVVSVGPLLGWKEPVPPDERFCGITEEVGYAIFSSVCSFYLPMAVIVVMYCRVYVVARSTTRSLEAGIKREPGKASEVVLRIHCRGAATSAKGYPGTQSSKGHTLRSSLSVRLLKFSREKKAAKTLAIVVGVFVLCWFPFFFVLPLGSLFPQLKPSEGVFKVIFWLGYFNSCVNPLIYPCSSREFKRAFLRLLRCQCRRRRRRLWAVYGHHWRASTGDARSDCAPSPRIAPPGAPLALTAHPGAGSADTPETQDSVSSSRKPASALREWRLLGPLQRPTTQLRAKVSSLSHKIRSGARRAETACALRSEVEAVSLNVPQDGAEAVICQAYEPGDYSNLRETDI
# [6] = molecular target: T6, Alpha-1B adrenergic receptor (Homo sapiens, UniProt P35368); assay: Displacement of [125I]BE2254 from human cloned adrenergic alpha 1B receptor expressed in HEK293 cells; type: cell-based
# T6 sequence (P35368 whole entry): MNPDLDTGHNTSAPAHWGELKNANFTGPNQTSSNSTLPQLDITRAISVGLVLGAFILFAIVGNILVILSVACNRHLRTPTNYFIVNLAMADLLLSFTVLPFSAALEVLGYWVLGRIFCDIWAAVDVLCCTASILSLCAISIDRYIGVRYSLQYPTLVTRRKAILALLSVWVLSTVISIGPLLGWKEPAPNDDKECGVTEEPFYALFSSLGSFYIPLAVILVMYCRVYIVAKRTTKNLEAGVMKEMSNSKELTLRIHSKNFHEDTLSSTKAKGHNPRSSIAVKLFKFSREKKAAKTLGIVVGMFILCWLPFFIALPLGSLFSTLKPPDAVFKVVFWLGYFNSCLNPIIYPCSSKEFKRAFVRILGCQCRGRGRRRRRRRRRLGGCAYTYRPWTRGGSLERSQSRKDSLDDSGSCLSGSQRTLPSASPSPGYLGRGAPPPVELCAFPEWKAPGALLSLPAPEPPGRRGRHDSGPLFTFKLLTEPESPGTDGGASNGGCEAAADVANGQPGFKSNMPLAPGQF
SMILES,Log Ki ([1]; hek293),pKb [2],Log Ki [3],pKb [4],pKb [5],Ki [1],Ki [6],Ki [3]
COc1ccccc1N1CCN(CCn2c(C)nc3c4ccccc4nc-3c2O)CC1,-8.52,8.53,-9.39,9.73,9.24,–,–,–
COc1ccccc1N1CCN(CCn2c(=O)[nH]c3c([nH]c4ccccc43)c2=O)CC1,–,8.46,-9.44,8.67,8.71,0.288 nM,–,–
COc1ccc(Cl)cc1N1CCN(CCn2c(=O)[nH]c3c(sc4ccccc43)c2=O)CC1,–,–,–,–,–,53.7 nM,91.2 nM,13.5 nM
COc1ccc(Cl)cc1N1CCN(CCn2c(C)nc3c([nH]c4ccccc43)c2=O)CC1,–,7.6,–,8.68,8.39,1.32 nM,4.47 nM,0.166 nM
COc1ccccc1N1CCN(CCn2c(=O)[nH]c3c(sc4ccccc43)c2=O)CC1,–,8.61,–,8.44,8.89,3.31 nM,8.91 nM,1.26 nM
COc1ccc(Cl)cc1N1CCN(CCn2c(C)nc3c(sc4ccccc43)c2=O)CC1,–,7.52,–,8.91,7.57,3.47 nM,17.4 nM,0.832 nM
Cn1c(=O)n(CCN2CCN(c3ccc(Cl)c(Cl)c3)CC2)c(=O)c2c1c1ccccc1n2C,–,–,–,–,–,182 nM,603 nM,437 nM
COc1ccc(Cl)cc1N1CCN(CCn2c(=O)[nH]c3c([nH]c4ccccc43)c2=O)CC1,–,–,–,–,–,8.32 nM,10.7 nM,1.55 nM
COc1ccccc1N1CCN(CCn2c(C)nc3c(sc4ccccc43)c2=O)CC1,–,8.65,–,7.63,8.98,1.48 nM,17.4 nM,0.398 nM
O=c1[nH]c2c(sc3ccccc32)c(=O)n1CCN1CCN(c2ccc(Cl)c(Cl)c2)CC1,–,–,–,–,–,4270 nM,19100 nM,309 nM
Cc1nc2c([nH]c3ccccc32)c(=O)n1CCN1CCN(c2ccc(Cl)c(Cl)c2)CC1,–,–,–,–,–,30.2 nM,83.2 nM,7.41 nM
